Activity calls are given as the source filed them. The rule behind the calls is not given here.
Columns and labels:
in vitro = conditions: human, HEK293T cells
Description: Cytotoxicity against HEK293T cells assessed as inhibition of cell growth incubated for 24 hrs by CCK-8 assay

A549 [1] = experiment: cells; format: functional, cell-based; conditions: Homo sapiens, A549, 24 h
Description: Antiproliferative activity against human A549 cells assessed as inhibition of cell growth incubated for 24 hrs by CCK-8 assay

NCI-H1975 [2] = experiment: cells; format: functional, cell-based; conditions: Homo sapiens, NCI-H1975, 24 h
Description: Antiproliferative activity against human NCI-H1975 cells assessed as inhibition of cell growth incubated for 24 hrs by CCK-8 assay

HCC827 [3] = experiment: cells; format: functional, cell-based; conditions: Homo sapiens, HCC827, 24 h
Description: Antiproliferative activity against human HCC827 cells assessed as inhibition of cell growth incubated for 24 hrs by CCK-8 assay

NCI-H1299 [4] = experiment: cells; format: functional, cell-based; conditions: Homo sapiens, NCI-H1299, 24 h
Description: Antiproliferative activity against human NCI-H1299 cells assessed as inhibition of cell growth incubated for 24 hrs by CCK-8 assay

NCI-H1975 [5] = experiment: Induction of apoptosis in human NCI-H1975 cells assessed as early apoptotic cells at 10 micromol/L incubated for 24 hrs by Annexin V-FITC/PI staining based analysis (reference value: 2.55%); format: functional; conditions: dose 10 µmol/L, at 10 µM
NCI-H1975 [6] = experiment: Induction of apoptosis in human NCI-H1975 cells assessed as live cells at 10 micromol/L incubated for 24 hrs by Annexin V-FITC/PI staining based analysis (reference value: 88.7%); format: functional; conditions: dose 10 µmol/L, at 10 µM
NCI-H1975 [7] = experiment: Induction of apoptosis in human NCI-H1975 cells assessed as dead cells at 10 micromol/L incubated for 24 hrs by Annexin V-FITC/PI staining based analysis (reference value: 0.103%); format: functional; conditions: dose 10 µmol/L, at 10 µM
NCI-H1299 [8] = experiment: Induction of apoptosis in human NCI-H1299 cells assessed as dead cells at 500 micromol/L incubated for 24 hrs by Annexin V-FITC/PI staining based analysis (reference value: 0.021%); format: functional; conditions: dose 500 µmol/L, at 500 µM
NCI-H1299 [9] = experiment: Induction of apoptosis in human NCI-H1299 cells assessed as early apoptotic cells at 500 micromol/L incubated for 24 hrs in presence of ML265 by Annexin V-FITC/PI staining based analysis (reference value: 0.772%); format: functional; conditions: dose 500 µmol/L, at 500 µM
NCI-H1299 [10] = experiment: Synergistic inhibition of NADPH production in human NCI-H1299 cells incubated for 2 hrs in presence of ML265 by NADP+/NADPH assay; format: functional, cell-based
NCI-H1299 [11] = experiment: Induction of apoptosis in human NCI-H1299 cells assessed as late apoptotic cells at 500 micromol/L incubated for 24 hrs in presence of ML265 by Annexin V-FITC/PI staining based analysis (reference value: 2.63%); format: functional; conditions: dose 500 µmol/L, at 500 µM
NCI-H1299 [12] = experiment: Antitumor activity against human NCI-H1299 cells xenografted in mouse assessed as pathological damage to tumor tissue administered in presence of ML265; format: functional
NCI-H1299 [13] = experiment: Synergistic antiproliferative activity against human NCI-H1299 cells assessed as cell growth inhibition at 500 micromol/L incubated for 24 hrs in presence of ML265 by CCK-8 analysis; format: functional, cell-based; conditions: dose 500.0 µmol/L
NCI-H1299 [14] = experiment: Induction of apoptosis in human NCI-H1299 cells assessed as late apoptotic cells at 500 micromol/L incubated for 24 hrs by Annexin V-FITC/PI staining based analysis (reference value: 2.63%); format: functional; conditions: dose 500 µmol/L, at 500 µM
NCI-H1299 [15] = experiment: Induction of apoptosis in human NCI-H1299 cells assessed as live cells at 500 micromol/L incubated for 24 hrs in presence of ML265 by Annexin V-FITC/PI staining based analysis (reference value: 96.6%); format: functional; conditions: dose 500 µmol/L, at 500 µM
NCI-H1299 [16] = experiment: Induction of apoptosis in human NCI-H1299 cells assessed as dead cells at 500 micromol/L incubated for 24 hrs in presence of ML265 by Annexin V-FITC/PI staining based analysis (reference value: 0.021%); format: functional; conditions: dose 500 µmol/L, at 500 µM
NCI-H1299 [17] = experiment: Synergistic induction of oxidative phosphorylation in human NCI-H1299 cells assessed as increase in ATP production in presence of ML265 by luminescence based assay; format: functional, cell-based
NCI-H1299 [18] = experiment: Induction of apoptosis in human NCI-H1299 cells assessed as early apoptotic cells at 500 micromol/L incubated for 24 hrs by Annexin V-FITC/PI staining based analysis (reference value: 0.772%); format: functional; conditions: dose 500 µmol/L, at 500 µM
NCI-H1299 [19] = experiment: Inhibition of glycolysis in human NCI-H1299 cells assessed as reduction in lactate production incubated for 1 hrs in presence of ML265 by colorimetric assay; format: functional, cell-based
NCI-H1299 [20] = experiment: Induction of apoptosis in human NCI-H1299 cells assessed as live cells at 500 micromol/L incubated for 24 hrs by Annexin V-FITC/PI staining based analysis (reference value: 96.6%); format: functional; conditions: dose 500 µmol/L, at 500 µM
NCI-H1299 [21] = experiment: Inhibition of glycolysis in human NCI-H1299 cells assessed as reduction in glucose consumption incubated for 24 hrs in presence of ML265 by colorimetric assay; format: functional, cell-based
NCI-H1299 [22] = experiment: Induction of apoptosis in human NCI-H1299 cells assessed as early apoptotic cells at 2 micromol/L incubated for 24 hrs by Annexin V-FITC/PI staining based analysis (reference value: 2.43%); format: functional; conditions: dose 2 µmol/L, at 2 µM
NCI-H1975 [23] = experiment: Induction of mitochondrial transmembrane potential dissipation in human NCI-H1975 cells assessed as cells with high mitochondrial transmembrane potential at 1 micromol/L by FL-1/FL-2 channel based fluorescence analysis (reference value: 97.4%); format: functional; conditions: dose 1 µmol/L; at 1 µM
NCI-H1975 [24] = experiment: Induction of apoptosis in human NCI-H1975 cells assessed as late apoptotic cells at 2 micromol/L incubated for 24 hrs by Annexin V-FITC/PI staining based analysis (reference value: 2.66%); format: functional; conditions: dose 2 µmol/L, at 2 µM
A549 [25] = experiment: Induction of apoptosis in human A549 cells assessed as late apoptotic cells at 2 micromol/L incubated for 24 hrs by Annexin V-FITC/PI staining based analysis (reference value: 3.18%); format: functional; conditions: dose 2 µmol/L, at 2 µM
HCC827 [26] = experiment: Induction of apoptosis in human HCC827 cells assessed as early apoptotic cells at 2 micromol/L incubated for 24 hrs by Annexin V-FITC/PI staining based analysis (reference value: 9.14%); format: functional; conditions: dose 2 µmol/L, at 2 µM
A549 [27] = experiment: Induction of apoptosis in human A549 cells assessed as early apoptotic cells at 2 micromol/L incubated for 24 hrs by Annexin V-FITC/PI staining based analysis (reference value: […]%); format: functional; conditions: dose 2 µmol/L
HCC827 [28] = experiment: Induction of apoptosis in human HCC827 cells assessed as late apoptotic cells at 2 micromol/L incubated for 24 hrs by Annexin V-FITC/PI staining based analysis (reference value: 8.42%); format: functional; conditions: dose 2 µmol/L, at 2 µM
NCI-H1975 [29] = experiment: Induction of apoptosis in human NCI-H1975 cells assessed as early apoptotic cells at 2 micromol/L incubated for 24 hrs by Annexin V-FITC/PI staining based analysis (reference value: 1.88%); format: functional; conditions: dose 2 µmol/L, at 2 µM
NCI-H1975 [30] = experiment: Induction of mitochondrial transmembrane potential dissipation in human NCI-H1975 cells assessed as cells with low mitochondrial transmembrane potential at 1 micromol/L by FL-1/FL-2 channel based fluorescence analysis (reference value: 2.13%); format: functional; conditions: dose 1 µmol/L; at 1 µM
NCI-H1299 [31] = experiment: Induction of apoptosis in human NCI-H1299 cells assessed as late apoptotic cells at 2 micromol/L incubated for 24 hrs by Annexin V-FITC/PI staining based analysis (reference value: 14.9%); format: functional; conditions: dose 2 µmol/L, at 2 µM

IC50 at 24 h (in vitro) [µM] | IC50 (A549 [1]) [µM] | IC50 (NCI-H1975 [2]) [µM] | IC50 (HCC827 [3]) [µM] | IC50 (NCI-H1299 [4]) [µM] | SMILES | other results
86.2 | 2.34 | 2.71 | 6.44 | 2.81 | COC(=O)[C@H](CS[C@H](CC=C(C)C)C1=CC(=O)c2c(O)ccc(O)c2C1=O)NC(=O)CCCC[C@@H]1CCSC(c2ccc(OC)cc2)S1 (some centres not stated) | 
 |  |  |  |  | COc1cc2ncnc(Nc3ccc(F)c(Cl)c3)c2cc1OCCCN1CCOCC1 [GEFITINIB] | Activity (NCI-H1975 [5]): 1.45%; Activity (NCI-H1975 [6]): 89%; Activity (NCI-H1975 [7]): 0%
 |  |  |  |  | CN(C)C(=O)c1ccc(S(=O)(=O)c2ccc(NC(=O)[C@@](C)(O)C(F)(F)F)c(Cl)c2)cc1 | Activity (NCI-H1299 [8]): 0.01%; Activity (NCI-H1299 [9]): 7.63%; inhibition (NCI-H1299 [10]): Active; Activity (NCI-H1299 [11]): 71.7%; Activity (NCI-H1299 [12]): Active; Activity (NCI-H1299 [13]): Active; Activity (NCI-H1299 [14]): 12.1%; Activity (NCI-H1299 [15]): 20.6%; Activity (NCI-H1299 [16]): 0%; Activity (NCI-H1299 [17]): Active; Activity (NCI-H1299 [18]): 28.9%; inhibition (NCI-H1299 [19]): Active; Activity (NCI-H1299 [20]): 59%; inhibition (NCI-H1299 [21]): Active
83.8 | 4.59 | 3.66 | 4.34 | 3.53 | COC(=O)[C@H](CS[C@H](CC=C(C)C)C1=CC(=O)c2c(O)ccc(O)c2C1=O)NC(=O)CCCC[C@@H]1CCSC(c2cccc(C(F)(F)F)c2)S1 (some centres not stated) | 
94.2 | 21.8 | 17 | 25.9 | 5.34 | COC(=O)[C@H](CS[C@H](CC=C(C)C)C1=CC(=O)c2c(O)ccc(O)c2C1=O)NC(=O)CCCC[C@@H]1CCSC(c2ccc([N+](=O)[O-])cc2)S1 (some centres not stated) | 
2.63 | 4.47 | 4.56 | 9.21 | 3.95 | CC(C)=CC[C@@H](O)C1=CC(=O)c2c(O)ccc(O)c2C1=O [SHIKONIN] | Activity (NCI-H1299 [22]): 4.34%; Activity (NCI-H1975 [23]): 91.3%; Activity (NCI-H1975 [24]): 9.96%; Activity (A549 [25]): 4.66%; Activity (HCC827 [26]): 27.5%; Activity (A549 [27]): 10.7%; Activity (HCC827 [28]): 22.1%; Activity (NCI-H1975 [29]): 8.91%; Activity (NCI-H1975 [30]): 8.69%; Activity (NCI-H1299 [31]): 17.2%
95.5 | 8.6 | 11.5 | 6.09 | 6.33 | COC(=O)[C@H](CS[C@H](CC=C(C)C)C1=CC(=O)c2c(O)ccc(O)c2C1=O)NC(=O)CCCC[C@@H]1CCSC(c2ccccc2)S1 (some centres not stated) | 
96.7 | 15.2 | 7.4 | 11.8 | 3.53 | COC(=O)[C@H](CS[C@H](CC=C(C)C)C1=CC(=O)c2c(O)ccc(O)c2C1=O)NC(=O)CCCC[C@@H]1CCSC(c2cccc(Br)c2)S1 (some centres not stated) | 
86 | 11.5 | 8.26 | 10.9 | 8.26 | COC(=O)[C@H](CS[C@H](CC=C(C)C)C1=CC(=O)c2c(O)ccc(O)c2C1=O)NC(=O)CCCC[C@@H]1CCSC(c2ccc(Cl)cc2)S1 (some centres not stated) | 
80.4 | 12.4 | 4.12 | 10.4 | 10.5 | COC(=O)[C@H](CS[C@H](CC=C(C)C)C1=CC(=O)c2c(O)ccc(O)c2C1=O)NC(=O)CCCC[C@@H]1CCSC(c2ccc(C)cc2)S1 (some centres not stated) | 
84.9 | 6.49 | 2.32 | 7.15 | 4.58 | COC(=O)[C@H](CS[C@H](CC=C(C)C)C1=CC(=O)c2c(O)ccc(O)c2C1=O)NC(=O)CCCC[C@@H]1CCSC(c2ccc(C(F)(F)F)cc2)S1 (some centres not stated) | 
88.8 | 18.1 | 4.68 | 13.2 | 3.27 | COC(=O)[C@H](CS[C@H](CC=C(C)C)C1=CC(=O)c2c(O)ccc(O)c2C1=O)NC(=O)CCCC[C@@H]1CCSC(c2ccc(Br)cc2)S1 (some centres not stated) | 
98.2 | 16.1 | 1.7 | 16.6 | 4.5 | COC(=O)[C@H](CS[C@H](CC=C(C)C)C1=CC(=O)c2c(O)ccc(O)c2C1=O)NC(=O)CCCC[C@@H]1CCSC(c2cccc(Cl)c2Cl)S1 (some centres not stated) | 
86.1 | 18.3 | 13.3 | 11.5 | 11.6 | COC(=O)[C@H](CS[C@H](CC=C(C)C)C1=CC(=O)c2c(O)ccc(O)c2C1=O)NC(=O)CCCC[C@@H]1CCSC(C2CCCCC2)S1 (some centres not stated) | 
88.7 | 13.3 | 15.7 | 19.3 | 24.8 | COC(=O)[C@H](CS[C@H](CC=C(C)C)C1=CC(=O)c2c(O)ccc(O)c2C1=O)NC(=O)CCCC[C@@H]1CCSC(c2ccc(OCc3ccccc3)cc2)S1 (some centres not stated) | 
77.5 | 4.21 | 4.08 | 4.21 | 4.93 | COC(=O)[C@H](CS[C@H](CC=C(C)C)C1=CC(=O)c2c(O)ccc(O)c2C1=O)NC(=O)CCCC[C@@H]1CCSC(c2ccc(C(C)C)cc2)S1 (some centres not stated) | 
84.5 | 9.56 | 8.3 | 8.31 | 6.73 | COC(=O)[C@H](CS[C@H](CC=C(C)C)C1=CC(=O)c2c(O)ccc(O)c2C1=O)NC(=O)CCCC[C@@H]1CCSC(c2ccccc2Cl)S1 (some centres not stated) | 

From ChEMBL document CHEMBL5346899, “PKM2/PDK1 dual-targeted shikonin derivatives restore the sensitivity of EGFR-mutated NSCLC cells to gefitinib by remodeling glucose metabolism” (Eur J Med Chem, 2023)
